“And” between values parts separate entries of the source, which are not always exact repeats. Identical values can stand only once. Like-named read-outs stand apart in the source and are kept apart here.
Legend:
HT-HsProRS [1] = molecular target: T1, HT-HsProRS (Homo sapiens, UniProt P07814); assay: biochemical
T1 sequence (P07814 996-1512): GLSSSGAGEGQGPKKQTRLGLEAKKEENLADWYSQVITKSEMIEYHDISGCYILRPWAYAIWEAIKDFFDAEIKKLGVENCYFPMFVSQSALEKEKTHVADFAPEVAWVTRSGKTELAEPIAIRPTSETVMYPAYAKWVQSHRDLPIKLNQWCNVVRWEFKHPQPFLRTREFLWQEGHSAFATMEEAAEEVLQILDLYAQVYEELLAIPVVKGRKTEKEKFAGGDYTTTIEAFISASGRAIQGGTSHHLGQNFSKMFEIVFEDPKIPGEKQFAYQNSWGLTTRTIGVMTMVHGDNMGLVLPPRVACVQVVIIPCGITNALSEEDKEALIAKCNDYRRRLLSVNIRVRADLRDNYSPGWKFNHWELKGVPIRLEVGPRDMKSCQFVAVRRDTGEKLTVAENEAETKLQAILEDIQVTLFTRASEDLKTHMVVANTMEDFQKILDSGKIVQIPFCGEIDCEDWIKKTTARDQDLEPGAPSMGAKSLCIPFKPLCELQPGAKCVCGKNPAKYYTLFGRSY
Description: (§1) A Multidrop Combi Reagent Dispenser (Thermo Fisher Scientific) was used to dispense 20 μL of 2× protein solution into each well. […] Plates were mixed on an Ika MTS 2/4 Digital Microtiter Shaker at 750 rpm for 2 min, centrifuged at 1000 × g at 25 °C for 1 min, and allowed to equilibrate for 2 h at room temperature before TR-FRET measurements were taken.
(§2) PRISM (V. 8.4.3–9.1.0, GraphPad) was used to perform non-linear regression analysis (log(inhibitor) vs. response–Variable slope (four parameters)), plot dose-response curves, and calculate IC50 values. The Cheng–Prusoff equation was used to convert IC50 to KD values (Eq. (4)):4 KD=IC50/1+[MAT379]/KD,MAT379

HT-HsProRS [2] = molecular target: T1, HT-HsProRS; conditions: replicates 1-4
Description: as §1, §2

HsProRS [3] = molecular target: T2, HsProRS (Homo sapiens, UniProt P07814); conditions: ref Heacock et al.; cited from earlier work
HT-PfcProRS = HT-PfcProRS (Plasmodium falciparum, UniProt Q8I5R7); assay: biochemical
Sequence of HT-PfcProRS (Q8I5R7 249-746): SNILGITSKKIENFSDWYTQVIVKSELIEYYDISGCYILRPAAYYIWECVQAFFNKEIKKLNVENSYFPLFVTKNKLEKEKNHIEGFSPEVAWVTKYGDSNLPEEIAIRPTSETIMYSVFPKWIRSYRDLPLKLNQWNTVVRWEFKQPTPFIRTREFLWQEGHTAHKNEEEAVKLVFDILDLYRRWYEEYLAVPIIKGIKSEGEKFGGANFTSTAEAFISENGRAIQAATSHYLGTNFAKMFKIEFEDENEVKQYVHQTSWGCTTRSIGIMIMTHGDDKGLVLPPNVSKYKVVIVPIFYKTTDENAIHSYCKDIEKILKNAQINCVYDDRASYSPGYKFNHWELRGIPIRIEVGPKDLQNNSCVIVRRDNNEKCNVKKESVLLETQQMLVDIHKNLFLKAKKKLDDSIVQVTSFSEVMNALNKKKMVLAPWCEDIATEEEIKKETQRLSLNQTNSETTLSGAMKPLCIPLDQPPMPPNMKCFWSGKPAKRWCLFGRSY
Description: as §1, §2

P. falciparum Dd2-2D4 = assay: P. falciparum asexual blood stage (ABS) growth assay, SYBR Green, 72 h, wild-type parasites; format: cell-based, Plasmodium falciparum; conditions: Plasmodium falciparum
[4] = system: P. falciparum Dd2-2D4 NCP26 selections S1-3; assay: ABS growth assay on bulk populations and clones from NCP26 resistance selections S1-3; format: cell-based, Plasmodium falciparum; conditions: for EC50: Plasmodium falciparum; for Fold-change Resistance: independent experiments
HsProRS [5] = molecular target: T2, HsProRS; assay: TR-FRET ligand displacement assay with tracer MAT379 (CoraFluor-1-Halo and anti-His6 antibody formats); format: binding; set-up: made in house; host or cells: E. coli SoluBL-21; conditions: for normalized TR-FRET signal (Fig 2k): 15 pM HT-HsProRS; for normalized TR-FRET signal (dose-response replicates): SI Fig 15, titrating, listed as ProSA (25)
[6] = DD2, cell line S1 - Clone A8, read-out: EC50 [nM] mean
[7] = DD2, cell line S2 - Clone A3, read-out: EC50 [nM] mean
[8] = DD2, cell line S2 - Clone B9, read-out: EC50 [nM] mean
[9] = DD2, cell line S2 - Clone C5, read-out: EC50 [nM] mean
[10] = DD2, cell line S3 - Clone B3, read-out: EC50 [nM] mean
[11] = DD2, cell line S3 - Clone B7, read-out: EC50 [nM] mean
[12] = DD2, read-out: EC50 [nM] mean, cell line S3 - Clone B2

Compound: Nc1ncnc2c1ncn2[C@@H]1O[C@H](COP(=O)(O)OP(=O)(O)OP(=O)(O)O)[C@@H](O)[C@H]1O [ATP]
- Kd (HT-HsProRS [1]; HsProRS (KD [nM]) mean, substrates, substrate KD, (-)): 67100 nM
- Kd (HT-HsProRS [1]; KD of substrate, […] HT-HsProRS, 1000 nM MAT379): 30600 nM
- ATP - […] HT-HsProRS - 1000nM MAT379 (HT-HsProRS [2]; Log[Substrate] (M) -1.301): 1.53E-02 and -2.24E-04 and 3.02E-02 and 2.38E-02
- ATP - […] HT-HsProRS - 1000nM MAT379 (HT-HsProRS [2]; Log[Substrate] (M) -1.602): 2.53E-02 and 6.72E-02 and 4.62E-03 and 4.29E-02
- ATP - […] HT-HsProRS - 1000nM MAT379 (HT-HsProRS [2]; Log[Substrate] (M) -1.903): 3.94E-02 and 5.54E-02 and 1.78E-02 and 4.02E-02
- ATP - […] HT-HsProRS - 1000nM MAT379 (HT-HsProRS [2]; Log[Substrate] (M) -2.204): -1.77E-02 and 2.78E-02 and -2.71E-02
- ATP - […] HT-HsProRS - 1000nM MAT379 (HT-HsProRS [2]; Log[Substrate] (M) -2.505): 4.93E-03 and 1.38E-02 and 2.29E-03 and -1.57E-02
- ATP - […] HT-HsProRS - 1000nM MAT379 (HT-HsProRS [2]; Log[Substrate] (M) -2.806): 3.39E-02 and 3.33E-02 and 1.97E-02 and 4.46E-02
- ATP - […] HT-HsProRS - 1000nM MAT379 (HT-HsProRS [2]; Log[Substrate] (M) -3.107): 5.86E-02 and 6.01E-02 and 5.77E-02 and 4.19E-02
- ATP - […] HT-HsProRS - 1000nM MAT379 (HT-HsProRS [2]; Log[Substrate] (M) -3.408): 1.19E-01 and 8.31E-02 and 6.99E-02
- ATP - […] HT-HsProRS - 1000nM MAT379 (HT-HsProRS [2]; Log[Substrate] (M) -3.709): 1.24E-01 and 1.53E-01 and 1.47E-01 and 1.40E-01
- ATP - […] HT-HsProRS - 1000nM MAT379 (HT-HsProRS [2]; Log[Substrate] (M) -4.010): 2.51E-01 and 2.58E-01 and 2.34E-01 and 2.36E-01
- ATP - […] HT-HsProRS - 1000nM MAT379 (HT-HsProRS [2]; Log[Substrate] (M) -4.311): 3.56E-01 and 3.10E-01 and 3.57E-01 and 3.37E-01
- ATP - […] HT-HsProRS - 1000nM MAT379 (HT-HsProRS [2]; Log[Substrate] (M) -4.612): 2.50E-01 and 3.45E-01 and 2.88E-01 and 2.85E-01
- ATP - […] HT-HsProRS - 1000nM MAT379 (HT-HsProRS [2]; Log[Substrate] (M) -4.913): 3.70E-01 and 3.71E-01 and 3.06E-01 and 3.78E-01
- ATP - […] HT-HsProRS - 1000nM MAT379 (HT-HsProRS [2]; Log[Substrate] (M) -5.214): 3.77E-01 and 4.09E-01 and 3.64E-01 and 3.70E-01
- ATP - […] HT-HsProRS - 1000nM MAT379 (HT-HsProRS [2]; Log[Substrate] (M) -5.515): 4.23E-01 and 4.03E-01 and 4.00E-01 and 4.38E-01
- ATP - […] HT-HsProRS - 1000nM MAT379 (HT-HsProRS [2]; Log[Substrate] (M) -5.816): 4.03E-01 and 4.66E-01 and 3.88E-01 and 4.49E-01
- ATP - […] HT-HsProRS - 1000nM MAT379 (HT-HsProRS [2]; Log[Substrate] (M) -6.118): 4.47E-01 and 4.50E-01 and 4.51E-01 and 4.46E-01
- ATP - […] HT-HsProRS - 1000nM MAT379 (HT-HsProRS [2]; Log[Substrate] (M) -6.419): 4.22E-01 and 4.52E-01 and 3.59E-01 and 4.01E-01
- Km (HsProRS [3]): 500 µM
- Kd (HT-PfcProRS): 892 µM

Compound: Nc1ncnc2c1ncn2[C@@H]1O[C@H](COS(=O)(=O)NC(=O)[C@@H]2CCCN2)[C@@H](O)[C@H]1O [ProSA, reference compound]
- EC50 (P. falciparum Dd2-2D4; DD2, SI Fig 16b, values on -log scale, read-out: ABS - Dd2-2D4 (converted)): 151 nM
- EC50 [4, 6]: 258 nM
- EC50 [4, 7]: 209 nM
- EC50 [4, 8]: 267 nM
- EC50 [4, 9]: 243 nM
- EC50 [4, 10]: 593 nM
- EC50 [4, 11]: 909 nM
- EC50 [4, 12]: 838 nM
- normalized TR-FRET signal (Fig 2k) (HsProRS [5]; Log[inhibitor] (M) -10.319): 9.27E-01 and 5.96E-01 and 5.68E-01 and 6.24E-01 and 7.95E-01 and 4.77E-01
- normalized TR-FRET signal (Fig 2k) (HsProRS [5]; Log[inhibitor] (M) -10.921): 1.19E+00 and 1.45E+00 and 8.99E-01 and 1.44E+00
- normalized TR-FRET signal (Fig 2k) (HsProRS [5]; Log[inhibitor] (M) -11.098): 1.29E+00 and 1.17E+00 and 7.99E-01 and 9.06E-01
- normalized TR-FRET signal (Fig 2i) (HsProRS [5]; Log[inhibitor] (M) -8.208): 2.86E-01 and 2.69E-01 and 2.23E-01
- normalized TR-FRET signal (Fig 2j) (HsProRS [5]; Log[inhibitor] (M) -8.208): 2.20E-01 and 2.14E-01 and 2.31E-01
- normalized TR-FRET signal (Fig 2i) (HsProRS [5]; Log[inhibitor] (M) -8.509): 5.48E-01 and 5.47E-01 and 6.11E-01
- normalized TR-FRET signal (Fig 2j) (HsProRS [5]; Log[inhibitor] (M) -8.509): 6.99E-01 and 6.28E-01 and 5.28E-01
- normalized TR-FRET signal (Fig 2i) (HsProRS [5]; Log[inhibitor] (M) -8.796): 8.53E-01 and 8.04E-01 and 8.09E-01
- normalized TR-FRET signal (Fig 2j) (HsProRS [5]; Log[inhibitor] (M) -8.796): 7.16E-01 and 7.19E-01 and 8.75E-01
- normalized TR-FRET signal (Fig 2i) (HsProRS [5]; Log[inhibitor] (M) -9.108): 9.05E-01 and 8.48E-01 and 8.77E-01
- normalized TR-FRET signal (Fig 2j) (HsProRS [5]; Log[inhibitor] (M) -9.108): 8.43E-01 and 8.74E-01 and 8.91E-01
- normalized TR-FRET signal (Fig 2i) (HsProRS [5]; Log[inhibitor] (M) -9.409): 8.95E-01
- normalized TR-FRET signal (Fig 2j) (HsProRS [5]; Log[inhibitor] (M) -10.602): 8.90E-01
- normalized TR-FRET signal (dose-response replicates) (HsProRS [5]; Log[inhibitor] (M) -7.601): -6.47E-02 and -3.87E-03 and 4.40E-03
- normalized TR-FRET signal (dose-response replicates) (HsProRS [5]; Log[inhibitor] (M) -7.904): 4.29E-02 and -1.08E-01 and 6.52E-02
- normalized TR-FRET signal (dose-response replicates) (HsProRS [5]; Log[inhibitor] (M) -8.208): 2.09E-01 and 4.52E-01 and 3.79E-01
- normalized TR-FRET signal (dose-response replicates) (HsProRS [5]; Log[inhibitor] (M) -8.509): 6.59E-01 and 7.25E-01 and 6.81E-01
- normalized TR-FRET signal (dose-response replicates) (HsProRS [5]; Log[inhibitor] (M) -8.796): 8.90E-01 and 6.94E-01 and 8.02E-01
- normalized TR-FRET signal (dose-response replicates) (HsProRS [5]; Log[inhibitor] (M) -9.108): 8.78E-01 and 8.82E-01
- normalized TR-FRET signal (dose-response replicates) (HsProRS [5]; Log[inhibitor] (M) -10.301): 9.09E-01
- normalized TR-FRET signal (dose-response replicates) (HsProRS [5]; Log[inhibitor] (M) -10.602): 1.29E+00
- normalized TR-FRET signal (dose-response replicates) (HsProRS [5]; Log[inhibitor] (M) -11): 9.02E-01

Compound: C[C@@H]1C[C@H](C)C[C@H](C)[C@@H](O)CC(=O)O[C@H]([C@@H]2CCC[C@H]2C(=O)O)C/C=C/C=C(/C#N)[C@H](O)[C@@H](C)C1 [Borrelidin, borrelidin, reference compound]
- EC50 (P. falciparum Dd2-2D4; cell line Dd2-2D4 (parent), read-out: EC50 [nM] mean): 6.05 nM
- EC50 [4, 6]: 1.5 nM
- EC50 ([4]; DD2, cell line S1 - bulk population, read-out: EC50 [nM] mean): 1.45 nM
- EC50 [4, 7]: 1.6 nM
- EC50 [4, 8]: 4.67 nM
- EC50 [4, 9]: 1.51 nM
- EC50 ([4]; DD2, cell line S2 - bulk population, read-out: EC50 [nM] mean): 1.3 nM
- EC50 [4, 10]: 1.34 nM
- EC50 [4, 11]: 1.38 nM
- EC50 ([4]; DD2, cell line S3 - bulk population, read-out: EC50 [nM] mean): 1.3 nM
- EC50 [4, 12]: 5.92 nM
- Fold-change Resistance ([4]; S2 - Clone B9): 1.46 and 0.77
- Fold-change Resistance ([4]; S3 - Clone B2): 1.02 and 1.96
